Assay [1] deals with protein levels in P. aeruginosa KEI 1025 infected cornea. In words: ELISA of corneal proteins, KEI 1025 infection. Format: in vivo, C57BL/6 (B6) mice. The note with it: vs PBS. The protocol:
The left eyes of B6 mice (n=5/group/time) were injected with 5 μl of 2 μg/μl glycyrrhizin (GLY) (Sigma-Aldrich, St. Louis, Mo.) or PBS (control) subconjunctivally, one day before infection. Similar treatment was done using carbenoxolone (CBX) (Sigma-Aldrich, St. Louis, Mo.). All mice were injected intraperitoneally (IP) at 1 and 3 days p.i. with 100 μl of GLY (2 μg/μl) or CBX (1 μg/μl). PBS served as control for all these experiments. In a separate similar experiment mice were treated one day before infection with GLY subconjunctivally and injected intraperitoneally (i.p.) with GLY plus recombinant (r) HMGB1 (1 μg/100 μl) or GLY plus PBS. IP injections were similarly given at 1 and 3 days p.i. In an additional experiment, KEI 1025 infected B6 mice were treated with 5 μl of 2 μg/μl GLY subconjunctivally at 6 hours p.i. and injected intraperitoneally at 1 and 3 days p.i. with 100 μl of GLY (2 μg/μl).
KEI 1025 or ATCC strain 19660 infected GLY or PBS treated, B6 mice (n=5/group/time) were sacrificed at 3 and 5 days p.i. and normal and infected corneas harvested. To quantify IL-1β and CXCL2 proteins, individual corneas were homogenized in 1 ml of 50 mM potassium phosphate buffer (pH 6.0) containing 0.5% HTAB (hexadecyltrimethylammonium bromide, Sigma). To quantify HMGB1, cathelicidin-related antimicrobial peptide (CRAMP), mouse beta defensin 2 (mBD2) and mouse beta defensin 3 (mBD3) protein levels, individual corneas were homogenized in 500 μl of PBS containing 0.1% Tween 20 (Sigma) and protease inhibitors (Roche, Indianapolis, Ind.). Corneal homogenates were centrifuged at 12,000 g for 10 min. A 50 μl aliquot of each supernatant was assayed in duplicate to quantify IL-1β, CXCL2, HMGB1 and mBD2 proteins. A 100 μl aliquot of CRAMP and mBD3 supernatant was assayed in duplicate to quantify corresponding protein levels. Undiluted supernatant aliquots were used to quantify all proteins except CXCL2 (1:2 dilution) and HMGB1 (1:5 dilution). An HMGB1 ELISA kit was purchased from Chondrex Inc., Redmond, Wash. CRAMP, mBD2 and mBD3 ELISA kits were purchased from MyBioSource, Inc., San Diego, Calif. All other ELISA kits were purchased from R&D Systems, Minneapolis, Minn. Assays were run following the manufacturer's instructions. Sensitivities of the assays were: 2.31 […] (mBD3).
On the technique in general: ELISA stands for enzyme-linked immunosorbent assay.

The test system of a further assay is P. aeruginosa ATCC 19660. Kind of assay: Bacterial growth and Minimum Inhibitory Concentration (MIC), strain 19660. Format: cell-based, Pseudomonas aeruginosa. The note with it: for absorbance values of bacterial cultures: vs growth control.
Where [2] appears, read: KEI 1025, pretreatment subconj. + IP, 3 days p.i.
The mark [3] stands for this setting: KEI 1025, pretreatment subconj. + IP, 5 days p.i.

As a reminder, the MIC50 is the lowest concentration that inhibits either 50% of growth or 50% of the strains tested, depending on the study. Higher therefore signals lower susceptibility. The MIC90 is the lowest concentration that inhibits either 90% of growth or 90% of the strains tested, depending on the study.

In brackets after ≈: the same amount, converted by molar mass.

Take `CC1(C)[C@@H](O[C@H]2O[C@H](C(=O)O)[C@@H](O)[C@H](O)[C@H]2O[C@@H]2O[C@H](C(=O)O)[C@@H](O)[C@H](O)[C@H]2O)CC[C@]2(C)[C@H]3C(=O)C=C4[C@@H]5C[C@@](C)(C(=O)O)CC[C@]5(C)CC[C@@]4(C)[C@]3(C)CC[C@@H]12` [GLY, glycyrrhizin]: the CXCL2 protein expression entry in assay [1] (setting [2]) and in assay [1] (setting [3]) was “significantly decreased” throughout. Further, the HMGB1 protein entry in assay [1] (setting [2]) is “not 3 days p.i”; in assay [1] (setting [3]), “reduced HMGB1 protein significantly”; in assay [1] (normal cornea) it was “did not differ”. Moreover, the values for the IL-1 protein result in assay [1] (setting [2]) and in assay [1] (setting [3]) were “no different from control values” and “significantly decreased”, respectively. Moreover, the “expression of CRAMP (protein)” value in assay [1] (setting [2]) was “upregulated the expression of CRAMP significantly”; in assay [1] (setting [3]) it was “no difference between groups”; in assay [1] (normal, uninfected cornea), “upregulated the expression of CRAMP significantly”. Further, the mBD2 protein result in assay [1] (setting [2]) is given as “significantly upregulated”; in assay [1] (setting [3]), “significantly upregulated”; in assay [1] (normal, contralateral uninfected eye), “higher”. Further, the mBD3 protein result in assay [1] (setting [2]), in assay [1] (setting [3]) and in assay [1] (normal cornea) was “did not differ significantly” each time. In addition, the MIC50 in the assay with P. aeruginosa ATCC 19660 (Pseudomonas aeruginosa, ATCC19660, strain 19660, 50% decrease in absorbance at 540 nm, 37° C., 18 h) was found to be 20 mg/mL (≈ 24.3 mM). Moreover, the MIC90 against P. aeruginosa ATCC 19660 (Pseudomonas aeruginosa, ATCC19660, strain 19660, 90% decrease in absorbance at 540 nm, 37° C., 18 h) worked out at 40 mg/mL (≈ 48.6 mM). In addition, the “Minimum Inhibitory Concentration 50 (MIC50)” value in the assay on P. aeruginosa ATCC 19660 (cytotoxic strains) amounted to 20 milligrams/milliliter. For the same compound, the “absorbance values of bacterial cultures” value in the assay with P. aeruginosa ATCC 19660 (strain 19660, grown with 10 mg/ml GLY) was “significantly reduced”; in the assay with P. aeruginosa ATCC 19660 (strain 19660, grown with 20 mg/ml GLY), “significantly reduced”; in the assay with P. aeruginosa ATCC 19660 (strain 19660, grown with 40 mg/ml GLY) it was “significantly reduced”.

For the origin of these results see patent US10500222B2, “Compositions and methods relating to treatment of infection” (Wayne State University, priority 2015, dated 2019).
